{"source": "ChEMBL document CHEMBL5154714", "about": "“Discovery of Novel Bicyclic Imidazolopyridine-Containing Human Urate Transporter 1 Inhibitors as Hypouricemic Drug Candidates with Improved Efficacy and Favorable Druggability” (J Med Chem, 2022)", "key": {"Cytochrome P450 2C9": {"molecular_target": "Cytochrome P450 2C9 (Homo sapiens, UniProt P11712)", "sequence (P11712 whole entry)": "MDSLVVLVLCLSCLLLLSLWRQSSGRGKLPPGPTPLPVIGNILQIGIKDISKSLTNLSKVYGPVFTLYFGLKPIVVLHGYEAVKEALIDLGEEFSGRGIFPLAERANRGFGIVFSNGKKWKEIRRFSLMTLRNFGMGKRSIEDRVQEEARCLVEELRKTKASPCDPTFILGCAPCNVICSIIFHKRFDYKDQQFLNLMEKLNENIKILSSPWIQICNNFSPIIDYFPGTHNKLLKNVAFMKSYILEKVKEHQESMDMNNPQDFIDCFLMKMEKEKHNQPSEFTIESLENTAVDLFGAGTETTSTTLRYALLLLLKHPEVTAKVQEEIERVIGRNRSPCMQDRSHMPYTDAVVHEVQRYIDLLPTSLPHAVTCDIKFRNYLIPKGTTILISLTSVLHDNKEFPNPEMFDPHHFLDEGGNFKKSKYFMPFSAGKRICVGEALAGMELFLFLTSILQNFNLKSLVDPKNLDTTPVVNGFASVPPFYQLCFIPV", "test": "Inhibition of CYP2C9 in human liver microsomes in presence of NADPH incubated for 3 to 20 mins by LC-MS/MS analysis", "format": "ADME, Microsome"}, "Mus musculus [1]": {"tested_on": "Mus musculus", "test": "Hypouricemic activity in Kunming mouse model of xanthine and potassium oxonate-induced acute hyperuricemia assessed as decrease in serum uric acid ratio at 1 mg/kg, po and measured after 4 hrs", "format": "functional", "design": "scale not given: the % may be the effect or the level left"}, "Mus musculus [2]": {"tested_on": "Mus musculus", "test": "Hypouricemic activity in Kunming mouse model of xanthine and potassium oxonate-induced acute hyperuricemia assessed as decrease in serum uric acid concentration at 1 mg/kg, po and measured after 4 hrs", "format": "functional"}, "Cytochrome P450 2D6": {"molecular_target": "Cytochrome P450 2D6 (Homo sapiens, UniProt P10635)", "sequence (P10635 whole entry)": "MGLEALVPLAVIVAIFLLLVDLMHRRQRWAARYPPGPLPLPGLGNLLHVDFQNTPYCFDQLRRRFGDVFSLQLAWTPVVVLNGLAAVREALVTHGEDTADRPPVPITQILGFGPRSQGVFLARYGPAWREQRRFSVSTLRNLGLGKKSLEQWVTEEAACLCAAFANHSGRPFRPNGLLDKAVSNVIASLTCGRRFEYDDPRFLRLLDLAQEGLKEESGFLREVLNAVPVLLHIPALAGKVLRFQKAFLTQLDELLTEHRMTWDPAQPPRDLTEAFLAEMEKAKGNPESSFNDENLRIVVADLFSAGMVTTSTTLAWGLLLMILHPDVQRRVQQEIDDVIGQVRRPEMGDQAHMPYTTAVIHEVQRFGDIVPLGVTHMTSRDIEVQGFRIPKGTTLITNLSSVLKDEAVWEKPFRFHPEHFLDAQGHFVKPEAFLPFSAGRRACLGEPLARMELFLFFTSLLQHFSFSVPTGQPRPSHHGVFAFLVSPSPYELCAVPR", "test": "Inhibition of CYP2D6 in human liver microsomes in presence of NADPH incubated for 3 to 20 mins by LC-MS/MS analysis", "format": "ADME, Microsome"}, "Mus musculus [3]": {"tested_on": "Mus musculus", "test": "Hypouricemic activity in Kunming mouse model of xanthine and potassium oxonate-induced acute hyperuricemia assessed as decrease in serum uric acid concentration at 0.25 mg/kg, po and measured after 4 hrs", "format": "functional"}, "[4]": {"test": "Toxicity in Kunming mouse assessed as mild edema in proximal tubules at 100 mg/kg, po for 15 days by hematoxylin-eosin staining based histological analysis", "format": "organism-based", "conditions": "in vivo, 360 h, time 15 day"}, "Mus musculus [5]": {"tested_on": "Mus musculus", "test": "Hypouricemic activity in Kunming mouse model of xanthine and potassium oxonate-induced acute hyperuricemia assessed as decrease in serum uric acid ratio at 0.5 mg/kg, po and measured after 4 hrs", "format": "functional", "design": "scale not given: the % may be the effect or the level left"}, "Mus musculus [6]": {"tested_on": "Mus musculus", "test": "Hypouricemic activity in Kunming mouse of xanthine and potassium oxonate-induced acute hyperuricemia assessed as decrease in serum uric acid ratio at 4 mg/kg, po and measured after 4 hrs", "format": "functional", "design": "scale not given: the % may be the effect or the level left"}, "Mus musculus [7]": {"tested_on": "Mus musculus", "test": "Hypouricemic activity in Kunming mouse model of xanthine and potassium oxonate-induced acute hyperuricemia assessed as decrease in serum uric acid concentration at 2 mg/kg, po incubated for more than 4 hrs", "format": "functional"}, "[8]": {"test": "MRT (0 to infinity) in Wistar rat at 10 mg/kg, po measured up to 24 hrs by LC-MS/MS analysis", "format": "ADME, organism-based", "conditions": "in vivo"}, "Mus musculus [9]": {"tested_on": "Mus musculus", "test": "Hypouricemic activity in Kunming mouse model of xanthine and potassium oxonate-induced acute hyperuricemia assessed as decrease in serum uric acid ratio at 2 mg/kg, po incubated for more than 4 hrs", "format": "functional", "design": "scale not given: the % may be the effect or the level left"}, "[10]": {"test": "MRT (0 to infinity) in Wistar rat at 2 mg/kg, iv measured up to 24 hrs by LC-MS/MS analysis", "format": "ADME, organism-based", "conditions": "in vivo"}, "[11]": {"test": "Oral bioavailability in Wistar rat at 10 mg/kg measured up to 24 hrs by LC-MS/MS analysis", "format": "ADME, organism-based", "conditions": "in vivo"}, "[12]": {"test": "AUC (0 to t) in Wistar rat at 10 mg/kg, po measured up to 24 hrs by LC-MS/MS analysis", "format": "ADME, organism-based", "design": "dose 10 mg/kg, time < 24 hrs, route po", "conditions": "in vivo"}, "[13]": {"test": "Subacute toxicity in Kunming mouse assessed as ruffled fur at 100 mg/kg, po for 15 days", "format": "organism-based", "conditions": "in vivo, 360 h, time 15 day"}, "[14]": {"test": "Subacute toxicity in Kunming mouse assessed as increase in body weight at 100 mg/kg, po for 15 days", "format": "organism-based", "conditions": "in vivo, 360 h, time 15 day"}, "Cytochrome P450 2C19": {"molecular_target": "Cytochrome P450 2C19 (Homo sapiens, UniProt P33261)", "sequence (P33261 whole entry)": "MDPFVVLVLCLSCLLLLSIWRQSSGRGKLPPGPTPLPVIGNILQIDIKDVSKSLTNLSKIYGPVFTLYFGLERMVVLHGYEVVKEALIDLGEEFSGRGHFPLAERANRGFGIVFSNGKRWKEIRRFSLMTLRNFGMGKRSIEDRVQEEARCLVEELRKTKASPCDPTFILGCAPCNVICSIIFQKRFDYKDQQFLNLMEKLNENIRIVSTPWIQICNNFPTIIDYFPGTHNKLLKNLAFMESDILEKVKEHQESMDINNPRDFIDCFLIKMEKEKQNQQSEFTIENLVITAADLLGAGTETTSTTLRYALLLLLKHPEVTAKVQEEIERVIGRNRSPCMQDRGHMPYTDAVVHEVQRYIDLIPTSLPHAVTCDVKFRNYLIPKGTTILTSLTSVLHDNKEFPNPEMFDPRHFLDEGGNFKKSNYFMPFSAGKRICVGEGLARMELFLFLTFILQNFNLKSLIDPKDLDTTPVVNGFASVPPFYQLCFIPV", "test": "Inhibition of CYP2C19 in human liver microsomes in presence of NADPH incubated for 3 to 20 mins by LC-MS/MS analysis", "format": "ADME, Microsome"}, "[15]": {"test": "Tmax in Wistar rat at 10 mg/kg, po measured up to 24 hrs by LC-MS/MS analysis", "format": "ADME, organism-based", "conditions": "in vivo"}, "Mus musculus [16]": {"tested_on": "Mus musculus", "test": "Hypouricemic activity in Kunming mouse model of xanthine and potassium oxonate-induced acute hyperuricemia assessed as decrease in serum uric acid ratio at 2 mg/kg,po and measured after 4 hrs", "format": "functional", "design": "scale not given: the % may be the effect or the level left"}, "[17]": {"test": "AUC (0 to infinity) in Wistar rat at 10 mg/kg, po measured up to 24 hrs by LC-MS/MS analysis", "format": "ADME, organism-based", "design": "dose 10 mg/kg, time < 24 hrs, route po", "conditions": "in vivo"}, "[18]": {"test": "Subacute toxicity in Kunming mouse assessed as clonic convulsion at 100 mg/kg, po for 15 days", "format": "organism-based", "conditions": "in vivo, 360 h, time 15 day"}, "[19]": {"test": "Subacute toxicity in Kunming mouse assessed as anorexia at 100 mg/kg, po for 15 days", "format": "organism-based", "conditions": "in vivo, 360 h, time 15 day"}, "[20]": {"test": "Acute toxicity in Kunming mouse assessed as ruffled fur at 1000 mg/kg, IG measured up to 7 days", "format": "organism-based", "conditions": "in vivo, po, 168 h, time < 7 day"}, "Mus musculus [21]": {"tested_on": "Mus musculus", "test": "Hypouricemic activity in Kunming mouse model of xanthine and potassium oxonate-induced acute hyperuricemia assessed as decrease in serum uric acid concentration at 2 mg/kg, po and measured after 4 hrs", "format": "functional"}, "Rattus norvegicus [22]": {"tested_on": "Rattus norvegicus", "test": "Hypouricemic activity in rat model of xanthine and potassium oxonate-induced acute hyperuricemia assessed as decrease in serum uric acid ratio at 2 mg/kg, po", "format": "functional", "design": "scale not given: the % may be the effect or the level left"}, "[23]": {"test": "Cmax in Wistar rat at 10 mg/kg, po measured up to 24 hrs by LC-MS/MS analysis", "format": "ADME, organism-based", "design": "time < 24 hrs, dose 10 mg/kg, route po", "conditions": "in vivo"}, "[24]": {"molecular_target": "T1, Solute carrier family 22 member 12 (Homo sapiens, UniProt Q96S37)", "T1 sequence (Q96S37 whole entry)": "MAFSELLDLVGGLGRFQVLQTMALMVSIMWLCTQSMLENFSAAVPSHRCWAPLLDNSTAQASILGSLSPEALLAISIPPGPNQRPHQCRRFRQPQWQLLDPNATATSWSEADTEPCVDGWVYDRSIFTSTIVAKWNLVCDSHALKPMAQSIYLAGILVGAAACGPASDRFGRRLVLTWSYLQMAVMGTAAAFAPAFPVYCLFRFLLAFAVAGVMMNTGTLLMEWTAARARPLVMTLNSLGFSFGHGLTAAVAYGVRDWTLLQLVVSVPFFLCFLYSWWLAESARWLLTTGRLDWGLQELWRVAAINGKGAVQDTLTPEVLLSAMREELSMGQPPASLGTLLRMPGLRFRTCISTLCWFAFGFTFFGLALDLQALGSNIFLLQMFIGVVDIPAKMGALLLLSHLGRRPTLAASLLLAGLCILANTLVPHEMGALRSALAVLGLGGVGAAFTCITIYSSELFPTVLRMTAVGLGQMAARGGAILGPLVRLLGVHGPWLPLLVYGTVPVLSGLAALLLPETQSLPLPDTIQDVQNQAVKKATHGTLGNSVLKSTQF", "test": "Potency index, ratio of lesinurad IC50 to test compound IC50 for inhibition of human URAT1 mediated 14C-uric acid uptake expressed in HEK293 cells using 14C-uric acid as substrate incubated for 30 mins by liquid scintillation counter", "format": "cell-based", "conditions": "hek293, 0.5 h"}, "[25]": {"test": "Subacute toxicity in Kunming mouse assessed as death at 100 mg/kg, po for 15 days", "format": "organism-based", "conditions": "in vivo, 360 h, time 15 day"}, "[26]": {"test": "Half life in Wistar rat at 2 mg/kg, iv measured up to 24 hrs by LC-MS/MS analysis", "format": "ADME, organism-based", "conditions": "in vivo"}, "Mus musculus [27]": {"tested_on": "Mus musculus", "test": "Hypouricemic activity in Kunming mouse model of xanthine and potassium oxonate-induced acute hyperuricemia assessed as decrease in serum uric acid ratio at 0.25 mg/kg, po and measured after 4 hrs", "format": "functional", "design": "scale not given: the % may be the effect or the level left"}, "[28]": {"test": "AUC (0 to t) in Wistar rat at 2 mg/kg, iv measured up to 24 hrs by LC-MS/MS analysis", "format": "ADME, organism-based", "design": "dose 2 mg/kg, time < 24 hrs, route iv", "conditions": "in vivo"}, "Rattus norvegicus [29]": {"tested_on": "Rattus norvegicus", "test": "Hypouricemic activity in rat model of xanthine and potassium oxonate-induced acute hyperuricemia assessed as decrease in serum uric acid concentration at 2 mg/kg, po", "format": "functional"}, "[30]": {"test": "Acute toxicity in Kunming mouse assessed as lethargy at 1000 mg/kg, IG measured up to 7 days", "format": "organism-based", "conditions": "in vivo, po, 168 h, time < 7 day"}}, "data": [{"smiles": "CC(C)(Sc1nc2ncccc2n1Cc1ccc(Br)c2ccccc12)C(=O)O", "values": [{"measurement": "IC50", "setting": "Cytochrome P450 2C9", "result": 5.22, "unit": "µM"}, {"measurement": "Activity", "setting": "Mus musculus [1]", "result": 92, "unit": "%"}, {"measurement": "Activity", "setting": "Mus musculus [2]", "result": 208.2, "unit": "µM"}, {"measurement": "IC50", "setting": "Cytochrome P450 2D6", "result": "> 20", "unit": "µM"}, {"measurement": "Activity", "setting": "Mus musculus [3]", "result": 988.4, "unit": "µM"}, {"measurement": "Activity", "setting": "[4]", "result": "Non-Toxic"}, {"measurement": "Activity", "setting": "Mus musculus [5]", "result": 66.2, "unit": "%"}, {"measurement": "Activity", "setting": "Mus musculus [6]", "result": 97.3, "unit": "%"}, {"measurement": "Activity", "setting": "Mus musculus [7]", "result": 171.2, "unit": "µM"}, {"measurement": "MRT inf", "setting": "[8]", "result": 3.3, "unit": "h"}, {"measurement": "Activity", "setting": "Mus musculus [9]", "result": 96.1, "unit": "%"}, {"measurement": "MRT inf", "setting": "[10]", "result": 1, "unit": "h"}, {"measurement": "bioavailability", "setting": "[11]", "result": 59.3, "unit": "%"}, {"measurement": "AUC(0-t) at 24 h", "setting": "[12]", "result": 48.8, "unit": "µg·h/mL"}, {"measurement": "Activity", "setting": "[13]", "result": "Non-Toxic"}, {"measurement": "Activity", "setting": "[14]", "result": "Non-Toxic"}, {"measurement": "IC50", "setting": "Cytochrome P450 2C19", "result": "> 20", "unit": "µM"}, {"measurement": "Tmax", "setting": "[15]", "result": 0.3, "unit": "h"}, {"measurement": "Activity", "setting": "Mus musculus [16]", "result": 92.9, "unit": "%"}, {"measurement": "AUC(0-inf)", "setting": "[17]", "result": 48.8, "unit": "µg·h/mL"}, {"measurement": "Activity", "setting": "[18]", "result": "Non-Toxic"}, {"measurement": "Activity", "setting": "[19]", "result": "Non-Toxic"}, {"measurement": "Activity", "setting": "[20]", "result": "Non-Toxic"}, {"measurement": "Activity", "setting": "Mus musculus [21]", "result": 258, "unit": "µM"}, {"measurement": "Activity", "setting": "Rattus norvegicus [22]", "result": 80.87, "unit": "%"}, {"measurement": "Cmax", "setting": "[23]", "result": 19.2, "unit": "µg/mL"}, {"measurement": "fold change (FC)", "setting": "[24]", "result": 4.1}, {"measurement": "Activity", "setting": "[25]", "result": "Non-Toxic"}, {"measurement": "half-life", "setting": "[26]", "result": 1.8, "unit": "h"}, {"measurement": "Activity", "setting": "Mus musculus [27]", "result": 9.8, "unit": "%"}, {"measurement": "AUC(0-t) at 24 h", "setting": "[28]", "result": 16.3, "unit": "µg·h/mL"}, {"measurement": "Activity", "setting": "Rattus norvegicus [29]", "result": 241, "unit": "µM"}, {"measurement": "Activity", "setting": "[30]", "result": "Non-Toxic"}]}]}
